Literature values as cited in patent US12161617B2, “Methocarbamol compositions and related methods” (Exela Sterile Medicines LLC, priority 2014, dated 2024).

differences with respect to methocarbamol absorption (patients undergoing maintenance haemodialysis vs normal subjects): no significant differences
relative systemic availability in patients (renal dialysis patients relative to normal subjects): 113%
Structure (SMILES): COc1ccccc1OCC(O)COC(N)=O (centres unmarked) [methocarbamol, 3-(2-methoxyphenoxy)-1,2-propanediol 1-carbamate]
